Test results from PubChem BioAssay (NCI).
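Cultured in 96-well plates, cells were exposed to test compound for 48 hours across five concentrations. Abbreviation: GI50, concentration required for 50% inhibition of growth. TGI marks complete inhibition of growth.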

How the values were obtained:
Assay in all cases: NCI anticancer screen, dose series, 48 h
IGROV1 ovarian = tested on: IGROV1 ovarian
UACC-62 melanoma = tested on: UACC-62 melanoma
SF-539 CNS = tested on: SF-539 CNS
MDA-MB-435 = tested on: MDA-MB-435
SR leukemia = tested on: SR leukemia
NCI/ADR-RES ovarian = tested on: NCI/ADR-RES ovarian
786-0 renal = tested on: 786-0 renal
NCI-H460 lung = tested on: NCI-H460 lung
ACHN renal = tested on: ACHN renal
PC-3 prostate = tested on: PC-3 prostate
SK-MEL-2 melanoma = tested on: SK-MEL-2 melanoma
TK-10 renal = tested on: TK-10 renal
MOLT-4 leukemia = tested on: MOLT-4 leukemia
SN12C renal = tested on: SN12C renal
HCC-2998 colon = tested on: HCC-2998 colon
NCI-H522 lung = tested on: NCI-H522 lung
M14 melanoma = tested on: M14 melanoma
HL-60(TB) leukemia = tested on: HL-60(TB) leukemia
UO-31 renal = tested on: UO-31 renal
SK-OV-3 ovarian = tested on: SK-OV-3 ovarian
KM12 colon = tested on: KM12 colon
OVCAR-5 ovarian = tested on: OVCAR-5 ovarian
CAKI-1 renal = tested on: CAKI-1 renal
SF-295 CNS = tested on: SF-295 CNS
SF-268 CNS = tested on: SF-268 CNS
NCI-H226 lung = tested on: NCI-H226 lung
A498 renal = tested on: A498 renal
MDA-MB-231 breast = tested on: MDA-MB-231 breast
HOP-62 NSCLC = tested on: HOP-62 NSCLC
MCF7 breast = tested on: MCF7 breast
OVCAR-4 ovarian = tested on: OVCAR-4 ovarian
K-562 leukemia = tested on: K-562 leukemia
OVCAR-8 ovarian = tested on: OVCAR-8 ovarian
HCT-116 colon = tested on: HCT-116 colon
HCT-15 colon = tested on: HCT-15 colon
COLO 205 colon = tested on: COLO 205 colon
A549 NSCLC = tested on: A549 NSCLC
HOP-92 NSCLC = tested on: HOP-92 NSCLC
RXF 393 renal = tested on: RXF 393 renal
NCI-H23 lung = tested on: NCI-H23 lung
SK-MEL-28 melanoma = tested on: SK-MEL-28 melanoma
BT-549 breast = tested on: BT-549 breast
SK-MEL-5 melanoma = tested on: SK-MEL-5 melanoma
HS 578T breast = tested on: HS 578T breast
RPMI-8226 leukemia = tested on: RPMI-8226 leukemia
OVCAR-3 ovarian = tested on: OVCAR-3 ovarian
SNB-75 CNS = tested on: SNB-75 CNS
CCRF-CEM leukemia = tested on: CCRF-CEM leukemia
LOX IMVI melanoma = tested on: LOX IMVI melanoma
UACC-257 melanoma = tested on: UACC-257 melanoma
U251 CNS = tested on: U251 CNS
HT29 colon = tested on: HT29 colon
DU-145 prostate = tested on: DU-145 prostate
SW-620 colon = tested on: SW-620 colon
SNB-19 CNS = tested on: SNB-19 CNS

COc1ccc(/C=C\c2cc(OC)c(OC)c(OC)c2)c(NS(=O)(=O)c2ccc(Cl)cc2)c1O
GI50 (IGROV1 ovarian): 379 nM | TGI (IGROV1 ovarian): 49.5 µM | GI50 (UACC-62 melanoma): 63.5 nM | TGI (UACC-62 melanoma): 22.6 µM | GI50 (SF-539 CNS): 37.1 nM | TGI (SF-539 CNS): 10.5 µM | GI50 (MDA-MB-435): 22.2 nM | TGI (MDA-MB-435): 52.5 nM | GI50 (SR leukemia): 30.6 nM | TGI (SR leukemia): 10.4 µM | GI50 (NCI/ADR-RES ovarian): 263 nM | TGI (NCI/ADR-RES ovarian): 22.4 µM | GI50 (786-0 renal): 572 nM | TGI (786-0 renal): 24.8 µM | GI50 (NCI-H460 lung): 316 nM | TGI (NCI-H460 lung): 14.4 µM | GI50 (ACHN renal): 83.8 nM | TGI (ACHN renal): 30.7 µM | GI50 (PC-3 prostate): 153 nM | TGI (PC-3 prostate): > 100 µM | GI50 (SK-MEL-2 melanoma): 65.9 nM | TGI (SK-MEL-2 melanoma): 21.3 µM | GI50 (TK-10 renal): 998 nM | TGI (TK-10 renal): 27.7 µM | GI50 (MOLT-4 leukemia): 315 nM | TGI (MOLT-4 leukemia): 83.3 µM | GI50 (SN12C renal): 708 nM | TGI (SN12C renal): 46.5 µM | GI50 (HCC-2998 colon): 429 nM | TGI (HCC-2998 colon): 16.4 µM | GI50 (NCI-H522 lung): 84.8 nM | TGI (NCI-H522 lung): 607 nM | GI50 (M14 melanoma): 91.3 nM | TGI (M14 melanoma): 56.3 µM | GI50 (HL-60(TB) leukemia): 33.1 nM | TGI (HL-60(TB) leukemia): 265 nM | GI50 (UO-31 renal): 73.9 nM | TGI (UO-31 renal): 26.4 µM | GI50 (SK-OV-3 ovarian): 229 nM | TGI (SK-OV-3 ovarian): 24.3 µM | GI50 (KM12 colon): 127 nM | TGI (KM12 colon): 12.8 µM | GI50 (OVCAR-5 ovarian): 2860 nM | TGI (OVCAR-5 ovarian): 33.8 µM | GI50 (CAKI-1 renal): 54.2 nM | TGI (CAKI-1 renal): 28.7 µM | GI50 (SF-295 CNS): 256 nM | TGI (SF-295 CNS): 12.2 µM | GI50 (SF-268 CNS): 380 nM | TGI (SF-268 CNS): 33.9 µM | GI50 (NCI-H226 lung): 24.9 µM | TGI (NCI-H226 lung): 90.4 µM | GI50 (A498 renal): 22.9 nM | TGI (A498 renal): 422 nM | GI50 (MDA-MB-231 breast): 206 nM | TGI (MDA-MB-231 breast): 21.4 µM | GI50 (HOP-62 NSCLC): 671 nM | TGI (HOP-62 NSCLC): 46.1 µM | GI50 (MCF7 breast): 38.4 nM | TGI (MCF7 breast): > 100 µM | GI50 (OVCAR-4 ovarian): 97.3 nM | TGI (OVCAR-4 ovarian): > 100 µM | GI50 (K-562 leukemia): 32.3 nM | TGI (K-562 leukemia): 20.2 µM | GI50 (OVCAR-8 ovarian): 294 nM | TGI (OVCAR-8 ovarian): 80.6 µM | GI50 (HCT-116 colon): 114 nM | TGI (HCT-116 colon): > 100 µM | GI50 (HCT-15 colon): 53 nM | TGI (HCT-15 colon): > 100 µM | GI50 (COLO 205 colon): 1740 nM | TGI (COLO 205 colon): 5.76 µM | GI50 (A549 NSCLC): 270 nM | TGI (A549 NSCLC): > 100 µM | GI50 (HOP-92 NSCLC): 2360 nM | TGI (HOP-92 NSCLC): 23.6 µM | GI50 (RXF 393 renal): 35.5 nM | TGI (RXF 393 renal): 10.7 µM | GI50 (NCI-H23 lung): 288 nM | TGI (NCI-H23 lung): 42.4 µM | GI50 (SK-MEL-28 melanoma): 84 nM | TGI (SK-MEL-28 melanoma): 31.6 µM | GI50 (BT-549 breast): 353 nM | TGI (BT-549 breast): 34.5 µM | GI50 (SK-MEL-5 melanoma): 51.1 nM | TGI (SK-MEL-5 melanoma): 332 nM | GI50 (HS 578T breast): 292 nM | TGI (HS 578T breast): 37 µM | GI50 (RPMI-8226 leukemia): 207 nM | TGI (RPMI-8226 leukemia): 20.5 µM | GI50 (OVCAR-3 ovarian): 60.2 nM | TGI (OVCAR-3 ovarian): 10.7 µM | GI50 (SNB-75 CNS): 33.1 nM | TGI (SNB-75 CNS): 17.4 µM | GI50 (CCRF-CEM leukemia): 159 nM | TGI (CCRF-CEM leukemia): > 100 µM | GI50 (LOX IMVI melanoma): 153 nM | TGI (LOX IMVI melanoma): 15.5 µM | GI50 (UACC-257 melanoma): 14.2 µM | TGI (UACC-257 melanoma): 60.5 µM | GI50 (U251 CNS): 287 nM | TGI (U251 CNS): 15.5 µM | GI50 (HT29 colon): 2760 nM | TGI (HT29 colon): 11.9 µM | GI50 (DU-145 prostate): 200 nM | TGI (DU-145 prostate): > 100 µM | GI50 (SW-620 colon): 69.4 nM | TGI (SW-620 colon): > 100 µM | GI50 (SNB-19 CNS): 807 nM | TGI (SNB-19 CNS): > 100 µM
